Laboratory results from ChEMBL document CHEMBL1201862, “PubChem BioAssay data set” (2004).
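Briefly, cells in 96-well plates were exposed to five compound concentrations for 48 h, and endpoints were estimated by linear interpolation. Abbreviation: GI50, concentration required for 50% inhibition of growth.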 The source made the active and inactive calls. Rule as the data show it: active = GI50 up to about 1.1 µM and inactive = higher.

How the values were obtained:
Assay in all cases: inhibition of tumour cell growth, NCI panel, 48 h
SW-620 = test system: SW-620
MOLT-4 = test system: MOLT-4
SNB-19 = test system: SNB-19
SF-539 = test system: SF-539
A549 = test system: A549
OVCAR-8 = test system: OVCAR-8
M14 = test system: M14
COLO 205 = test system: COLO 205
NCI-H226 = test system: NCI-H226
IGROV-1 = test system: IGROV-1
U-251 = test system: U-251
K562 = test system: K562
SK-MEL-2 = test system: SK-MEL-2
HOP-92 = test system: HOP-92
LXFL 529 = test system: LXFL 529
ACHN = test system: ACHN
SR = test system: SR
SNB-75 = test system: SNB-75
SN12C = test system: SN12C
SK-MEL-28 = test system: SK-MEL-28
RXF 393 = test system: RXF 393
OVCAR-4 = test system: OVCAR-4
DMS-273 = test system: DMS-273
OVCAR-3 = test system: OVCAR-3
KM12 = test system: KM12
HCC 2998 = test system: HCC 2998
DLD-1 = test system: DLD-1
786-0 = test system: 786-0
SF-268 = test system: SF-268
M19-MEL = test system: M19-MEL
OVCAR-5 = test system: OVCAR-5
CAKI-1 = test system: CAKI-1
HT-29 = test system: HT-29
UO-31 = test system: UO-31
NCI-H23 = test system: NCI-H23
SK-MEL-5 = test system: SK-MEL-5
SNB-78 = test system: SNB-78
UACC-62 = test system: UACC-62
DMS-114 = test system: DMS-114
LOX IMVI = test system: LOX IMVI
HCT-116 = test system: HCT-116
Malme-3M = test system: Malme-3M
TK-10 = test system: TK-10
SK-OV-3 = test system: SK-OV-3
EKVX = test system: EKVX
KM-20L2 = test system: KM-20L2
CCRF-CEM = test system: CCRF-CEM
NCI-H460 = test system: NCI-H460
SF-295 = test system: SF-295
NCI-H522 = test system: NCI-H522
HOP-18 = test system: HOP-18
UACC-257 = test system: UACC-257
HL-60 = test system: HL-60
A498 = test system: A498
T47D = test system: T47D
XF498 = test system: XF498
BT-549 = test system: BT-549
MDA-MB-435 = test system: MDA-MB-435
MDA-MB-231 = test system: MDA-MB-231
PC-3 = test system: PC-3
DU-145 = test system: DU-145
HCT-15 = test system: HCT-15
MCF7 = test system: MCF7
HOP-62 = test system: HOP-62
NCI/ADR-RES = test system: NCI/ADR-RES
RPMI-8226 = test system: RPMI-8226
Hs-578T = test system: Hs-578T

CCOC(=O)c1sc2c(C(=O)OCC)n3cc(C)cc(C)c3c2c1O
GI50 (SW-620): > 100 µM (inactive)
GI50 (MOLT-4): > 100 µM (inactive)
GI50 (SNB-19): > 100 µM (inactive)
GI50 (SF-539): > 100 µM (inactive)
GI50 (A549): > 100 µM (inactive)
GI50 (OVCAR-8): > 100 µM (inactive)
GI50 (M14): > 100 µM (inactive)
GI50 (COLO 205): > 100000 nM (inactive)
GI50 (NCI-H226): > 100 µM (inactive)
GI50 (IGROV-1): > 100 µM (inactive)
GI50 (U-251): > 100 µM (inactive)
GI50 (K562): > 100000 nM (inactive)
GI50 (SK-MEL-2): > 100000 nM (inactive)
GI50 (HOP-92): 76.4 µM (inactive)
GI50 (LXFL 529): > 100 µM (inactive)
GI50 (ACHN): > 100 µM (inactive)
GI50 (SR): > 100 µM (inactive)
GI50 (SNB-75): 58700 nM (inactive)
GI50 (SN12C): > 100 µM (inactive)
GI50 (SK-MEL-28): > 100 µM (inactive)
GI50 (RXF 393): > 100 µM (inactive)
GI50 (OVCAR-4): > 100 µM (inactive)
GI50 (DMS-273): > 100000 nM (inactive)
GI50 (OVCAR-3): 63.2 µM (inactive)
GI50 (KM12): > 100 µM (inactive)
GI50 (HCC 2998): > 100 µM (inactive)
GI50 (DLD-1): > 100 µM (inactive)
GI50 (786-0): > 100 µM (inactive)
GI50 (SF-268): > 100 µM (inactive)
GI50 (M19-MEL): > 100 µM (inactive)
GI50 (OVCAR-5): > 100 µM (inactive)
GI50 (CAKI-1): > 100 µM (inactive)
GI50 (HT-29): > 100000 nM (inactive)
GI50 (UO-31): > 100 µM (inactive)
GI50 (NCI-H23): > 100 µM (inactive)
GI50 (SK-MEL-5): > 100 µM (inactive)
GI50 (SNB-78): > 100 µM (inactive)
GI50 (UACC-62): > 100000 nM (inactive)
GI50 (DMS-114): 37.6 µM (inactive)
GI50 (LOX IMVI): > 100 µM (inactive)
GI50 (HCT-116): > 100 µM (inactive)
GI50 (Malme-3M): > 100 µM (inactive)
GI50 (TK-10): > 100 µM (inactive)
GI50 (SK-OV-3): > 100000 nM (inactive)
GI50 (EKVX): 29.5 µM (inactive)
GI50 (KM-20L2): > 100000 nM (inactive)
GI50 (CCRF-CEM): > 100 µM (inactive)
GI50 (NCI-H460): > 100 µM (inactive)
GI50 (SF-295): > 100 µM (inactive)
GI50 (NCI-H522): 80.4 µM (inactive)

CO[C@H](/C(C)=C/C=C/C(C)=C/c1coc(C)n1)[C@H](C)[C@H]1C[C@@H](O)[C@@]2(C)O[C@H]2/C=C/[C@@H](C)[C@@H]2C[C@@H](CC(=O)O2)C[C@H]2O[C@@H]2C(=O)O1
GI50 (A549): < 0.01 µM (active)
GI50 (COLO 205): < 10 nM (active)
GI50 (K562): < 10 nM (active)
GI50 (SK-MEL-2): < 10 nM (active)
GI50 (LXFL 529): < 0.01 µM (active)
GI50 (HOP-18): 50 nM (active)
GI50 (SR): < 0.01 µM (active)
GI50 (SNB-75): < 27.1 nM (active)
GI50 (OVCAR-4): 5.18e-06 µM (active)
GI50 (DMS-273): < 10 nM (active)
GI50 (HCC 2998): < 0.01 µM (active)
GI50 (DLD-1): 0.0147 µM (active)
GI50 (M19-MEL): < 0.0236 µM (active)
GI50 (OVCAR-5): 0.000384 µM (active)
GI50 (HT-29): 13.3 nM (active)
GI50 (UACC-257): < 28.3 nM (active)
GI50 (UACC-62): < 10 nM (active)
GI50 (DMS-114): < 0.01 µM (active)
GI50 (Malme-3M): < 0.01 µM (active)
GI50 (TK-10): 3.21e-06 µM (active)
GI50 (SK-OV-3): 0.00103 nM (active)
GI50 (EKVX): 2.03e-06 µM (active)
GI50 (KM-20L2): < 10 nM (active)

CC(=O)O[C@@]12CO[C@@H]1CC(O)[C@@]1(C)C(=O)[C@H](O)C3=C(C)C(O)C[C@@](O)(C(OC(=O)c4ccccc4)C12)C3(C)C (stereo not given in full)
GI50 (SW-620): 0.448 µM (active)
GI50 (HL-60): 410 nM (active)
GI50 (MOLT-4): 0.759 µM (active)
GI50 (SNB-19): 3.3 µM (inactive)
GI50 (SF-539): 0.415 µM (active)
GI50 (A549): 3.81 µM (inactive)
GI50 (OVCAR-8): 3.13 µM (inactive)
GI50 (M14): 2.59 µM (inactive)
GI50 (COLO 205): 434 nM (active)
GI50 (NCI-H226): > 100 µM (inactive)
GI50 (IGROV-1): 1.88 µM (inactive)
GI50 (U-251): 0.828 µM (active)
GI50 (A498): 5.82 µM (inactive)
GI50 (K562): 619 nM (active)
GI50 (SK-MEL-2): 367 nM (active)
GI50 (T47D): > 100 µM (inactive)
GI50 (HOP-92): 22.6 µM (inactive)
GI50 (XF498): 2.07 µM (inactive)
GI50 (BT-549): 1.26 µM (inactive)
GI50 (ACHN): 51.2 µM (inactive)
GI50 (SR): 1.06 µM (active)
GI50 (SNB-75): 507 nM (active)
GI50 (MDA-MB-435): 180 nM (active)
GI50 (SN12C): 2.18 µM (inactive)
GI50 (MDA-MB-231): 4.19 µM (inactive)
GI50 (RXF 393): 25 µM (inactive)
GI50 (OVCAR-4): > 90.8 µM (inactive)
GI50 (DMS-273): 472 nM (active)
GI50 (OVCAR-3): 0.454 µM (active)
GI50 (PC-3): 881 nM (active)
GI50 (DU-145): 3.35 µM (inactive)
GI50 (KM12): 0.558 µM (active)
GI50 (HCC 2998): 1.72 µM (inactive)
GI50 (786-0): 2.9 µM (inactive)
GI50 (HCT-15): 24.7 µM
GI50 (SF-268): 3.97 µM (inactive)
GI50 (M19-MEL): 12.8 µM (inactive)
GI50 (MCF7): 463 nM (active)
GI50 (OVCAR-5): 3.94 µM (inactive)
GI50 (HOP-62): 6.05 µM (inactive)
GI50 (CAKI-1): 24.8 µM (inactive)
GI50 (HT-29): 385 nM (active)
GI50 (NCI/ADR-RES): > 100 µM (inactive)
GI50 (UO-31): 46.1 µM (inactive)
GI50 (NCI-H23): 0.869 µM (active)
GI50 (SK-MEL-5): 6.58 µM (inactive)
GI50 (UACC-257): 684 nM (active)
GI50 (RPMI-8226): 519 nM (active)
GI50 (SNB-78): 15.5 µM (inactive)
GI50 (UACC-62): 508 nM (active)
GI50 (LOX IMVI): 0.839 µM (active)
GI50 (HCT-116): 0.371 µM (active)
GI50 (Malme-3M): 2.54 µM (inactive)
GI50 (TK-10): 8.51 µM (inactive)
GI50 (Hs-578T): 252 nM (active)
GI50 (SK-OV-3): 767 nM (active)
GI50 (EKVX): 5.62 µM (inactive)
GI50 (KM-20L2): 679 nM (active)
GI50 (CCRF-CEM): 0.454 µM (active)
GI50 (NCI-H460): 1.02 µM (active)
GI50 (SF-295): 5.32 µM (inactive)
GI50 (NCI-H522): 0.637 µM (active)
